In patent publication US20260258033A1, “2,7-Naphthyridine Compounds as MASTL Inhibitors” (Pfizer Inc., priority 2022, published 2026) one finds Ki data, which are given here for 25 compounds.

The target in this assay is T1, Full-length human recombinant N-term FLAG-tagged MASTL protein (Homo sapiens, UniProt Q96GX5).
T1 sequence (Q96GX5 1-879): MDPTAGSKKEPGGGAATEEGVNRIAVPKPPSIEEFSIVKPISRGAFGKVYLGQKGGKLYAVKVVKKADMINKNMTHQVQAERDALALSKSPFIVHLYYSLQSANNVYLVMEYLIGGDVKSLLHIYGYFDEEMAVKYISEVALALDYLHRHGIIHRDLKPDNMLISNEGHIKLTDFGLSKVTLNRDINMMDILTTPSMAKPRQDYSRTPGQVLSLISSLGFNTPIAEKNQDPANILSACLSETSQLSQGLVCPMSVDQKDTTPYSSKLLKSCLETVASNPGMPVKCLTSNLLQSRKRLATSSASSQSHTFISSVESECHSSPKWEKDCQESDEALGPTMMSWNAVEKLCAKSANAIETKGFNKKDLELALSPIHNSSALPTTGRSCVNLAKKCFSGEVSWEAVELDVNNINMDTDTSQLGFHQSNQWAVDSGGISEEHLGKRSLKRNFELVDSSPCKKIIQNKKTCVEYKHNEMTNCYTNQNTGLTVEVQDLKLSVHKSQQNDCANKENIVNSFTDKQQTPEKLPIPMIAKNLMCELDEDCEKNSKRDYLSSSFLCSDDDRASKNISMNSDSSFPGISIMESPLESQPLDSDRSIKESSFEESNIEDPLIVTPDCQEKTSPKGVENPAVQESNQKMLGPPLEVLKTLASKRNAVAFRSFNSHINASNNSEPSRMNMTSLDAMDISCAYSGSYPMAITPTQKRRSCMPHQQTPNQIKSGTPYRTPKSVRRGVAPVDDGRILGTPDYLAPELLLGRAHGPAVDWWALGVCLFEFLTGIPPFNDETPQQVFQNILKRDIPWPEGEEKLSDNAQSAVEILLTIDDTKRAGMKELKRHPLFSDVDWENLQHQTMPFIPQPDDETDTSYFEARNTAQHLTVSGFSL
Description: MASTL enzyme kinase assay (CHEF PhosphoSens). The settings on record: MASTL Ki (nM), 3 nM MASTL, 1 mM ATP, room temperature; geometric mean of at least 3 independent determinations (* denotes n = 2).
Description: MASTL enzyme kinase assay was used to measure the inhibition constant (Ki) of Examples of the present invention.
Full-length human recombinant N-term FLAG-tagged MASTL protein (construct LJIC-3077G2), activated by CDK1, was produced at Pfizer Inc by expression in baculovirus-infected insect cells. All reagents were purchased from Sigma-Aldrich, Inc (St. Louis, MO), unless specified otherwise. Tween™ 20 detergent (10% Solution) was purchased from EMD Millipore Corp (Billerica, MA). The CHEF phosphoacceptor peptide substrate (AQT0693) was purchased from AssayQuant technologies, Inc (Marlboro, MA). […] The reactions contained 1 mM ATP and were initiated by the addition of enzyme. Initial reaction velocities were determined by following the fluorescence (λex=360 nm, λem=485 nm) of appropriate CHEF peptide substrate for 120 minutes in an end-point mode in a SpectraMax Paradigm Microplate Reader (Molecular Devices, LLC. San Jose, California). The extents of reactions were estimated to be <20%.
As usually defined, the Ki is a dissociation constant, usually derived from enzyme kinetics or from competition with a known ligand. Take `CCC1(NC)CCc2c1ccnc2Nc1cc2cc(-c3cnnn3C)nc(N)c2cn1` (single isomer, unassigned) [Example 3, N^6-(5-ethyl-5-(methylamino)-6,7-dihydro-5H-cyclopenta[c]pyridin-1-yl)-3-(1-methyl-1H-1,2,3-triazol-5-yl)-2,7-naphthyridine-1,6-diamine]: the Ki worked out at 0.36 nM.

On to `CCC1(NC)CCc2c1ccnc2Nc1cc2cc(-c3cnnn3C)nc(N)c2cn1` (single isomer, unassigned) [Example 4, N^6-(5-ethyl-5-(methylamino)-6,7-dihydro-5H-cyclopenta[c]pyridin-1-yl)-3-(1-methyl-1H-1,2,3-triazol-5-yl)-2,7-naphthyridine-1,6-diamine], for which the Ki stood at 0.47 nM.

In the case of `CCC1(NC)CCc2cnc(Nc3cc4cc(-c5cnnn5C)nc(N)c4cn3)cc21` (single isomer, unassigned) [Example 5, N^6-(5-ethyl-5-(methylamino)-6,7-dihydro-5H-cyclopenta[c]pyridin-3-yl)-3-(1-methyl-1H-1,2,3-triazol-5-yl)-2,7-naphthyridine-1,6-diamine], the Ki came out at 0.033 nM.

Turning to `CCC1(NC)CCc2cnc(Nc3cc4cc(-c5cnnn5C)nc(N)c4cn3)cc21` (single isomer, unassigned) [Example 6, N^6-(5-ethyl-5-(methylamino)-6,7-dihydro-5H-cyclopenta[c]pyridin-3-yl)-3-(1-methyl-1H-1,2,3-triazol-5-yl)-2,7-naphthyridine-1,6-diamine], the Ki turned out to be 0.076 nM.

As to `CCC(N)c1cc(Nc2cc3cc(-c4cnnn4C)nc(N)c3cn2)ncc1C` (single isomer, unassigned) [Example 13, N^6-(4-(1-aminopropyl)-5-methylpyridin-2-yl)-3-(1-methyl-1H-1,2,3-triazol-5-yl)-2,7-naphthyridine-1,6-diamine], the Ki was 0.065 nM.

Take `CCC(N)c1cc(Nc2cc3cc(-c4cnnn4C)nc(N)c3cn2)ncc1C` (single isomer, unassigned) [Example 14, N^6-(4-(1-aminopropyl)-5-methylpyridin-2-yl)-3-(1-methyl-1H-1,2,3-triazol-5-yl)-2,7-naphthyridine-1,6-diamine]: the Ki stood at 0.098 nM.

Consider `Cn1nncc1-c1cc2cc(Nc3cc(C(N)CC(F)(F)F)ccn3)ncc2c(N)n1` (single isomer, unassigned) [Example 17, N^6-(4-(1-amino-3,3,3-trifluoropropyl)pyridin-2-yl)-3-(1-methyl-1H-1,2,3-triazol-5-yl)-2,7-naphthyridine-1,6-diamine], for which the Ki came to 0.12 nM.

For `Cn1nncc1-c1cc2cc(Nc3cc(C(N)CC(F)(F)F)ccn3)ncc2c(N)n1` (single isomer, unassigned) [Example 18, N^6-(4-(1-amino-3,3,3-trifluoropropyl)pyridin-2-yl)-3-(1-methyl-1H-1,2,3-triazol-5-yl)-2,7-naphthyridine-1,6-diamine], the Ki came out at 0.088 nM.

`CNC(C)(c1ccnc(Nc2cc3cc(-c4cnnn4C)nc(N)c3cn2)c1)C1CC1` (single isomer, unassigned) [Example 19, N^6-(4-(1-cyclopropyl-1-(methylamino)ethyl)pyridin-2-yl)-3-(1-methyl-1H-1,2,3-triazol-5-yl)-2,7-naphthyridine-1,6-diamine]: the Ki turned out to be 0.047 nM.

Regarding `CNC(C)(c1ccnc(Nc2cc3cc(-c4cnnn4C)nc(N)c3cn2)c1)C1CC1` (single isomer, unassigned) [Example 20, N^6-(4-(1-cyclopropyl-1-(methylamino)ethyl)pyridin-2-yl)-3-(1-methyl-1H-1,2,3-triazol-5-yl)-2,7-naphthyridine-1,6-diamine], the Ki worked out at 0.049 nM.

As for `Cn1nncc1-c1cc2cc(Nc3cc(C(C)(N)CC(F)(F)F)ccn3)ncc2c(N)n1` (single isomer, unassigned) [Example 25, N^6-(4-(2-amino-4,4,4-trifluorobutan-2-yl)pyridin-2-yl)-3-(1-methyl-1H-1,2,3-triazol-5-yl)-2,7-naphthyridine-1,6-diamine], the Ki is 0.078 nM.

With `Cn1nncc1-c1cc2cc(Nc3cc(C(C)(N)CC(F)(F)F)ccn3)ncc2c(N)n1` (single isomer, unassigned) [Example 26, N^6-(4-(2-amino-4,4,4-trifluorobutan-2-yl)pyridin-2-yl)-3-(1-methyl-1H-1,2,3-triazol-5-yl)-2,7-naphthyridine-1,6-diamine], the Ki worked out at 0.075 nM.

As for `Cn1nncc1-c1cc2cc(Nc3cc(C(C)(N)C(F)(F)F)ccn3)ncc2c(N)n1` (single isomer, unassigned) [Example 28, N^6-(4-(2-amino-1,1,1-trifluoropropan-2-yl)pyridin-2-yl)-3-(1-methyl-1H-1,2,3-triazol-5-yl)-2,7-naphthyridine-1,6-diamine], the Ki came out at 0.093 nM.

Consider `Cn1nncc1-c1cc2cc(Nc3cc(C(C)(N)C(F)(F)F)ccn3)ncc2c(N)n1` (single isomer, unassigned) [Example 29, N^6-(4-(2-amino-1,1,1-trifluoropropan-2-yl)pyridin-2-yl)-3-(1-methyl-1H-1,2,3-triazol-5-yl)-2,7-naphthyridine-1,6-diamine], for which the Ki came out at 0.17 nM.

Turning to `CNC(C)(c1ccnc(Nc2cc3cc(-c4cnnn4C)nc(N)c3cn2)c1)C(C)C` (single isomer, unassigned) [Example 30, 3-(1-methyl-1H-1,2,3-triazol-5-yl)-N^6-(4-(3-methyl-2-(methylamino)butan-2-yl)pyridin-2-yl)-2,7-naphthyridine-1,6-diamine], the Ki was 0.036 nM.

With `CNC(C)(c1ccnc(Nc2cc3cc(-c4cnnn4C)nc(N)c3cn2)c1)C(C)C` (single isomer, unassigned) [Example 31, 3-(1-methyl-1H-1,2,3-triazol-5-yl)-N^6-(4-(3-methyl-2-(methylamino)butan-2-yl)pyridin-2-yl)-2,7-naphthyridine-1,6-diamine], the Ki was found to be 0.03 nM.

For the compound `CNC(C)(COC)c1ccnc(Nc2cc3cc(-c4cnnn4C)nc(N)c3cn2)c1` (single isomer, unassigned) [Example 32, N^6-(4-(1-methoxy-2-(methylamino)propan-2-yl)pyridin-2-yl)-3-(1-methyl-1H-1,2,3-triazol-5-yl)-2,7-naphthyridine-1,6-diamine], the Ki is 0.087 nM.

As for `CNC(C)(COC)c1ccnc(Nc2cc3cc(-c4cnnn4C)nc(N)c3cn2)c1` (single isomer, unassigned) [Example 33, N^6-(4-(1-methoxy-2-(methylamino)propan-2-yl)pyridin-2-yl)-3-(1-methyl-1H-1,2,3-triazol-5-yl)-2,7-naphthyridine-1,6-diamine], the Ki was found to be 0.25 nM.

In the case of `CNC(c1ccnc(Nc2cc3cc(-c4cnnn4C)nc(N)c3cn2)c1)C(C)(C)C` (single isomer, unassigned) [Example 34, N^6-(4-(2,2-dimethyl-1-(methylamino)propyl)pyridin-2-yl)-3-(1-methyl-1H-1,2,3-triazol-5-yl)-2,7-naphthyridine-1,6-diamine], the Ki came to 0.23 nM.

As for `CNC(c1ccnc(Nc2cc3cc(-c4cnnn4C)nc(N)c3cn2)c1)C(C)(C)C` (single isomer, unassigned) [Example 35, N^6-(4-(2,2-dimethyl-1-(methylamino)propyl)pyridin-2-yl)-3-(1-methyl-1H-1,2,3-triazol-5-yl)-2,7-naphthyridine-1,6-diamine], the Ki was 0.32 nM.

Consider `CCC(N)(CC)c1cc(Nc2cc3cc(-c4cnnn4C)nc(N)c3cn2)ncn1` [Example 23, N^6-(6-(3-aminopentan-3-yl)pyrimidin-4-yl)-3-(1-methyl-1H-1,2,3-triazol-5-yl)-2,7-naphthyridine-1,6-diamine], for which the Ki stood at 0.057 nM.

Regarding `CNC1(c2ccnc(Nc3cc4cc(-c5cnnn5C)nc(N)c4cn3)c2)CCC1` [Example 24, 3-(1-methyl-1H-1,2,3-triazol-5-y1)-N^6-(4-(1-(methylamino)cyclobutyl)pyridin-2-yl)-2,7-naphthyridine-1,6-diamine], the inhibitory constant (Ki) was determined as 0.089 nM.

As for `CNC1(c2ccnc(Nc3cc4cc(-c5cnnn5C)nc(N)c4cn3)c2)CCCC1` [Example 27, 3-(1-methyl-1H-1,2,3-triazol-5-y1)-N^6-(4-(1-(methylamino)cyclopentyl)pyridin-2-yl)-2,7-naphthyridine-1,6-diamine], the Ki was determined as 0.073 nM.

As to `CN(C)C(C)(C)c1ccnc(Nc2cc3cc(-c4cnnn4C)nc(N)c3cn2)c1` [Example 36, N^6-(4-(2-(dimethylamino)propan-2-yl)pyridin-2-yl)-3-(1-methyl-1H-1,2,3-triazol-5-yl)-2,7-naphthyridine-1,6-diamine], the Ki came to 0.061 nM.

With `CCn1nncc1-c1cc2cc(Nc3cc(C(C)(C)NC)ccn3)ncc2c(N)n1` [Example 37, 3-(1-ethyl-1H-1,2,3-triazol-5-yl)-N^6-(4-(2-(methylamino)propan-2-yl)pyridin-2-yl)-2,7-naphthyridine-1,6-diamine], the Ki worked out at 0.059 nM.
